pEC50, pKd: −log10 of the molar value. Where two headings read alike, the source gives them in different places. Bounds are passed on as bounds.

One assay has as its target T1, HCV NS4B (Hepatitis C virus genotype 1b, UniProt Q9WMX2).
T1 construct: NS4B was cloned, expressed and purified to establish an assay; made in house
Kind of assay: NS4B binding assay (quenching of intrinsic protein fluorescence). An excerpt: NS4B was cloned, expressed and purified to establish an assay, which takes advantage of the intrinsic fluorescent properties of proteins and identifies compounds, which inhibit by a NS4B specific mechanism. This protein is necessary for viral replication. It is thought to act as an anchor securing the replication complex to cellular membranes, where replication is known to occur. Several other functions necessary for viral replication have also ascribed to NS4B.

Assay [1] relates to HCV replicon (BB7 sequence) in Huh-7-Clone A cells. Kind of assay: HCV replicon NS5A ELISA, inhibition of viral RNA replication. In kind it is cell-based, hepatitis C virus. The following applies: Hepatitis C virus, read-out: ELISA EC50. The protocol:
Antiviral activity of representative compounds of the invention was evaluated in a human liver-derived cell line (Huh-7-Clone A) containing the HCV replicon (BB7 sequence) (See Lohmann et al. Science. 1999, 285:110-3; Blight K J et al., Science. 2000, 290:1972-4; Pietschmann, T. et al., J. Virol. 2001, 73:1252-1264; and Lohmann, V. et al., J. Virol. 2001, 75:1437-1449). The HCV replicon is a subgenomic viral RNA that expresses the HCV proteins required for its own replication. These proteins include non-structural proteins NS3, NS4A, NS4B, NS5A and NS5B. The replicon also contains a foreign gene encoding a drug-selectable marker (neomycin phosphotransferase) to allow for G418 (neomycin) selection of cells that contain the replicon.
An ELISA (enzyme-linked immunosorbant assay) was used to determine the effect of compounds within the scope of the invention on the amount of HCV NS5A protein produced after a 72-hour incubation of the replicon-containing cells in the presence of varying concentrations of compound. Huh7-Clone A cells were seeded in 96-well plates at a subconfluent density (9000 cells/well) in medium containing 2% FBS and incubated for 4 hours to allow attachment to occur. HCV-086 (solubilized with 100% dimethylsulfoxide [DMSO]) was added to wells using an 8-point, 3-fold serial dilution series, with a final DMSO concentration of 1% in a total volume of 200 μL. Plates were incubated for 72 hours at 37° C. and 5% CO2. Under these conditions, the cells are approximately 25% confluent at the time of seeding and 80-90% confluent on day 3. COSTAR® 96-well cell culture plates were used but other known cell culture plates may be used. After incubation, media is removed from wells and the cells are fixed to the assay plate using 0.05% glutaraldehyde (Fisher # 02957-4). The glutaraldehyde is then washed off using phosphate-buffered saline (PBS) following a 1 hour incubation and cells are blocked for non-specific antibody binding using for example SUPERBLOCK® reagent (blocking buffer) in PBS. The blocking agent is rinsed from the cells with PBS after 1 hour at 37° C., and HCV NS5A monoclonal antibody (Virostat # 1873) is added to each well containing compound. Primary antibody is incubated for 1 hour at 37° C. and rinsed 3 times with PBS containing 0.02% TWEEN-20™ before addition of Horseradish Peroxidase (HRP) conjugated secondary antibody. HRP is incubated for 1 hour at 37° C. and rinsed several times, first with PBS/TWEEN-20™ followed by PBS alone. To quantify peroxidase activity, 3,3′,5,5′-tetramethylbenzidine (TMB) substrate is added to the plate and after 30 minutes, the plates are read in an ELISA plate reader at an OD of 650 nm.
Compound dose response was measured in an 8-point dose curve diluted serially to determine the inhibitory concentration at 50% (EC50 value). […] Ranges of 50% effective concentrations (EC50s) for the representative compounds within the scope of this invention are listed in Tables 1-8. Preferred compounds have 50% effective concentrations at about 30 μM or less, more preferred compounds have 50% effective concentrations at about 5 μM or less, and most preferred compounds have 50% effective concentrations at about 0.5 μM or less.
(In antiviral work, replicon cells carry a viral genome segment that copies itself.)

The mark [2] stands for this setting: Table 5, aminothiophene compounds, read-out: Kd.
[3] abbreviates: Table 5, NS5A protein, 72-hour incubation.
[4] abbreviates: Table 6, phenylthiazolylamine compounds, read-out: Kd.
Where [5] appears, read: Table 6, NS5A protein, 72-hour incubation.
Where [6] appears, read: Table 7, triazinoindole compounds, read-out: Kd.
[7] abbreviates: Table 7, NS5A protein, 72-hour incubation.
Where [8] appears, read: Table 1, phenyl benzamide compounds, read-out: Kd.
Setting [9] is: Table 1, NS5A protein, 72-hour incubation.
Where [10] appears, read: Table 2, pyrazolopyrimidine compounds, read-out: Kd.
Setting [11] is: Table 2, NS5A protein, 72-hour incubation.

T1 sequence (Q9WMX2 1712-1972): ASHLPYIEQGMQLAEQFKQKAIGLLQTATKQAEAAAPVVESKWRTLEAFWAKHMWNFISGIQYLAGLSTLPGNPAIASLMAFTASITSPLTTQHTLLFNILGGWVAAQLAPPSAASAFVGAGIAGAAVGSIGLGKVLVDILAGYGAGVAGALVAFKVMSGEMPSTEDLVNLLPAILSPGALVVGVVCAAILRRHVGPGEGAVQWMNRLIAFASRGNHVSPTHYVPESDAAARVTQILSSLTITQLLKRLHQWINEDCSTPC

Take `COC(=O)c1c(NC(=O)c2ccc3c(c2)OCO3)sc(C(=O)NC2CCCCC2)c1C` [Example 2]: the pKd on HCV NS4B (setting [2]) was 5.40. In assay [1] (setting [3]), the pEC50 was 5.12.
Take `COC(=O)c1c(NC(=O)Cc2cccs2)sc(C(=O)Nc2ccc(Cl)cc2)c1C` [Example 1]: the pKd on HCV NS4B (setting [2]) was 6.52. Also, the negative-log EC50 (pEC50) in assay [1] (setting [3]) is 6.15.
Turning to `CC(=O)Nc1ccc(Nc2nc(-c3cccs3)cs2)cc1` [Example 2], the negative-log Kd (pKd) at HCV NS4B (setting [4]) was 5.21. In assay [1] (setting [5]), the negative logarithm of the EC50 (pEC50) is 4.95.
For the compound `CCCCc1c(C)nn(-c2nnc3c4ccccc4n(CCN(CC)CC)c3n2)c1C` [Example 9], the pKd at HCV NS4B (setting [6]) was 5.74. In addition, the negative-log EC50 (pEC50) in assay [1] (setting [7]) is 5.28.
As to `COC(=O)c1c(NC(=O)C(C)C)sc(C(=O)Nc2ccc(Cl)cc2)c1C` [Example 3], the pKd on HCV NS4B is 6.07. Moreover, the pEC50 in assay [1] (setting [3]) was 5.94.
Consider `CCCCc1c(C)nn(-c2nnc3c4ccccc4n(C)c3n2)c1C` [Example 3], for which the pKd at HCV NS4B is 5.37. In addition, the pEC50 in assay [1] (setting [7]) was 5.24.
On to `CCn1c2ccccc2c2nnc(-n3nc(C)c(-c4ccccc4)c3C)nc21` [Example 2], for which, at HCV NS4B (setting [6]), the pKd was 5.66. Moreover, in assay [1] (setting [7]), the pEC50 is 6.00.
Take `COc1ccc(C(=O)Nc2ccc(N3CCOCC3)c(Cl)c2)cc1Cl` [Example 2]: the negative logarithm of the Kd (pKd) on HCV NS4B (setting [8]) is 5.63. In assay [1] (setting [9]), the pEC50 is 5.60.
Turning to `CCCCc1c(C)nn(-c2nnc3c4ccccc4n(CCSC)c3n2)c1C` [Example 12], the negative-log Kd (pKd) at HCV NS4B (setting [6]) was 5.74. For the same compound, in assay [1] (setting [7]), the negative-log EC50 (pEC50) was 5.00.
Consider `CCCCc1c(C)nn(-c2nnc3c(n2)[nH]c2ccccc23)c1C` [Example 10], for which the negative logarithm of the Kd (pKd) on HCV NS4B (setting [6]) is 5.44. Further, in assay [1] (setting [7]), the pEC50 is less than 4.60.
Take `COc1ccc(OC)c(Nc2nc(-c3cccs3)cs2)c1` [Example 3]: the pKd on HCV NS4B (setting [4]) is 6.24. For the same compound, the pEC50 in assay [1] (72 h) is 5.60.
Regarding `CC(C)c1ccc(NC(=O)c2ccccc2)cc1` [Example 4], the negative logarithm of the Kd (pKd) on HCV NS4B (setting [8]) is 5.16. Also, the pEC50 in assay [1] (setting [9]) was 5.55.
Consider `O=C(NC1CCCC1)c1cc2nc(-c3ccccc3)cc(C(F)(F)F)n2n1` [Example 2], for which the pKd at HCV NS4B (setting [10]) was 5.38. In addition, in assay [1] (setting [11]), the pEC50 is 5.77.
Consider `CCc1c(C)nn(-c2nnc3c4ccccc4n(C)c3n2)c1C` [Example 6], for which, at HCV NS4B (setting [6]), the negative logarithm of the Kd (pKd) was 5.12. In addition, the pEC50 in assay [1] (setting [7]) is less than 4.60.
In the case of `CCCCc1c(C)nn(-c2nnc3c4ccccc4n(CCO)c3n2)c1C` [Example 7], the negative-log Kd (pKd) at HCV NS4B (setting [6]) is 5.70. Further, the pEC50 in assay [1] (setting [7]) was less than 4.60.
Consider `CC(C)Oc1cccc(C(=O)Nc2ccc(N3CCOCC3)c(Cl)c2)c1` [Example 3], for which the negative logarithm of the Kd (pKd) at HCV NS4B was 5.35. In assay [1] (setting [9]), the pEC50 is 5.41.
For the compound `O=C(NCc1cccs1)c1cc2nc(-c3ccco3)cc(C(F)(F)Cl)n2n1` [Example 3], the pKd on HCV NS4B was 6.18. Moreover, the negative logarithm of the EC50 (pEC50) in assay [1] (setting [11]) was 6.20.
Take `CCCc1cc(O)n2nc(-c3ccc(C)cc3)c(C)c2n1` [Example 1]: at HCV NS4B (setting [10]), the negative logarithm of the Kd (pKd) was 5.23. Also, the negative logarithm of the EC50 (pEC50) in assay [1] (setting [11]) was 5.66.
Regarding `CCCCc1c(C)nn(-c2nnc3c4ccccc4n(CCN(C(C)C)C(C)C)c3n2)c1C` [Example 8], the pKd at HCV NS4B (setting [6]) was 4.99. Besides, the negative logarithm of the EC50 (pEC50) in assay [1] (setting [7]) is 5.18.
Turning to `CC(=O)c1ccc(NC(=O)c2cc3c(C)nn(-c4ccccc4)c3s2)cc1` [Example 1], at HCV NS4B (Table 4, thienopyrazole compound, read-out: Kd), the pKd is 6.00. In addition, the negative-log EC50 (pEC50) in assay [1] (Table 4, NS5A protein, 72-hour incubation) is 5.50.
As for `CCC(C)c1ccc(NC(=O)c2ccccc2F)cc1` (centres unmarked) [Example 1], the negative logarithm of the Kd (pKd) at HCV NS4B (setting [8]) is 5.60. Also, the pEC50 in assay [1] (setting [9]) was 5.57.
In the case of `CCC(=O)Nc1sc(C(=O)Nc2ccc(C)cc2)c(C)c1C(=O)OC` [Example 4], the negative logarithm of the Kd (pKd) at HCV NS4B (setting [2]) is 5.78. Also, the pEC50 in assay [1] (setting [3]) is 5.49.
In the case of `Cc1nn(-c2nnc3c4ccccc4n(C)c3n2)c(C)c1C` [Example 4], on HCV NS4B (setting [6]), the negative-log Kd (pKd) is 4.85. Moreover, in assay [1] (setting [7]), the negative-log EC50 (pEC50) was less than 4.60.
For `Cc1nccn1-c1nc(-c2ccc(Cl)cc2)cc(C(F)(F)F)n1` [Example 1], on HCV NS4B (Table 3, trifluoromethylpyrimidine compound, read-out: Kd), the pKd is 5.69. Further, in assay [1] (Table 3, NS5A protein, 72-hour incubation), the pEC50 is 5.66.
Take `COc1ccc(Cl)cc1Nc1nc(-c2cccnc2)cs1` [Example 1]: on HCV NS4B (setting [4]), the pKd was 5.77. For the same compound, the pEC50 in assay [1] (setting [5]) was 5.82.
In the case of `CCC(=O)Nc1sc(C(=O)Nc2ccc(Cl)cc2)c(C)c1C(=O)OC` [Example 5], the negative-log Kd (pKd) at HCV NS4B (setting [2]) was 5.60. In addition, the pEC50 in assay [1] (setting [3]) was 5.34.
As to `CCn1c2ccccc2c2nnc(-n3nc(C)c(C)c3C)nc21` [Example 5], the negative logarithm of the Kd (pKd) on HCV NS4B (setting [6]) was 4.81. Moreover, in assay [1] (setting [7]), the negative-log EC50 (pEC50) was less than 4.60.
Turning to `CCCCc1c(C)nn(-c2nnc3c4ccccc4n(CCOC)c3n2)c1C` [Example 11], the negative-log Kd (pKd) at HCV NS4B (setting [6]) is 6.00. In addition, the pEC50 in assay [1] (setting [7]) is 5.15.

Usually pKd stands for the Kd on a negative log10 scale, so that one unit is a factor of ten. Broadly, the pEC50 is −log10 of the EC50, conventionally taken in molar units.

The values above are taken from patent US20070269420A1, “Compounds, Compositions and Methods for Treatment and Prophylaxis of Hepatitis C Viral Infections and Associated Diseases” (priority 2003, published 2007).
